Some results are limits rather than exact numbers.

In this assay the target is T1, human OX2 receptor (Homo sapiens, UniProt O43614).
T1 sequence (O43614 1-444): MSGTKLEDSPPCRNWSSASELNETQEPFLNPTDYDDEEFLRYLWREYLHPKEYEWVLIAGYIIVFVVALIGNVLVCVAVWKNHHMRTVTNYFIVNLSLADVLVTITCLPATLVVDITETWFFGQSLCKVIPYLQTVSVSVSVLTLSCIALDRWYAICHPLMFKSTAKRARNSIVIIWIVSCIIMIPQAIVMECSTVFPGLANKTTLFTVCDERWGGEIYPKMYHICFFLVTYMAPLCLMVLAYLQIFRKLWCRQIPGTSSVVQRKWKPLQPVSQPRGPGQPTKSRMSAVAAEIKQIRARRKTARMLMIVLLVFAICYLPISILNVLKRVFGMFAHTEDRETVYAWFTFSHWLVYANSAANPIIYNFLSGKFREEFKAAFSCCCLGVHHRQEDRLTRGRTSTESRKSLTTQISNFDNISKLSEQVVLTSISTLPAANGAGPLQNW
Kind of assay: [3H]-radioligand binding assay, OX2. The arrangement: made in house; host or cells: SF21 insect cells (baculovirus; P0 virus made in SF9). The note with it: [3H]-radioligand binding, human OX2 membranes; read-out: pKi average OX2 (converted). An excerpt: Cloning, Baculovirus generation, large-scale infection of SF21 cells and membrane preparation. Human OX1 or OX2 receptor were cloned into Invitrogen's (ThermoFisher Scientific, UK) Bac-to-Bac Baculovirus Expression System. P0 baculovirus was generated by transfecting SF9 cells with bacmid DNA using Cellfectin® II transfection reagent (ThermoFisher Scientific, UK, Catalog number 10362-100). Following P0 generation P1 virus was then generated ready for large scale infection and membrane preparation. SF21 cells were grown in expression medium ESF921 (Expression Systems, USA, catalog number 96-001-01) supplemented with 10% heat-inactivated FBS and 1% Pen/Strep and were infected at a cell density of 2.5×10^6 cells/mL and a multiplicity of infection of 1.0 for both human OX1R and OX2R. Incubation was carried out at over 48 h in a shaking incubator set at 27° C. The cell culture was then centrifuged at 2,500 rcf for 10 min at 4° C. The pellets were resuspended in cold PBS supplemented with Roche's Complete EDTA-free protease inhibitor cocktail tablets (Roche Applied Sciences, catalog number 05056489001), 1 mM PMSF and 1 mM EDTA. The resuspended cell paste was then centrifuged at 3,273 rcf for 12 min at 4° C. The supernatant was discarded and the pellet frozen at −80° C. The cell pellet from a 4 L culture was resuspended in buffer containing 50 mM HEPES pH 7.5, 150 mM NaCl, 8 Roche EDTA-Free protease inhibitor cocktail tablets and 1 mM PMSF. The suspension was left stirring at rt for 1 h and then homogenised for 90 s at 9,500 rpm using a VDI 25 (VWR, USA) homogeniser. The cells were then lysed using a Microfluidiser processor M-110L Pneumatic (Microfluidics, USA) at 60 PSI and membranes collected by ultracentrifugation at 204.7 k×g for 1 h. The supernatant was discarded and the pellet was resuspended and homogenised in 90 s at 9,500 rpm in 50 mL (25 mL for each 2 L culture) of buffer containing 50 mM Hepes pH 7.5, 150 mM NaCl, 3 Roche EDTA-free protease inhibitor cocktail tablets and 1 mM PMSF. The resulting membranes were then stored at −80° C.
[^3H]-radioligand binding assay. After thawing, membrane homogenates were resuspended in the binding buffer (8.5 mM HEPES, pH 7.4, 1.3 mM CaCl2, 1.2 mM MgSO4, 118 mM NaCl, 4.7 mM KCl, 4 mM NaHCO3, 1.2 mM KH2PO4, 11 mM glucose) to a final assay concentration of 6.4 μg (OX1) or 1.4 μg (OX2) protein per well. Saturation isotherms were determined by the addition of various concentrations (0-30 nM) of [^3H]-4-(2,6-difluoro-4-methoxybenzyl)-2-(5,6-dimethoxypyridin-3-yl)-2H-1,2,4-benzothiadiazin-3(4H)-one 1,1-dioxide (Christopher et al, MedChemComm., 2015, 6, 947-955) in a total reaction volume of 250 μL for 90 min at rt. At the end of the incubation, membranes were filtered onto a 96-well GF/B filter pre-incubated with 0.5% polyethylenimine, with a Tomtec cell harvester and washed 5 times with 0.5 mL distilled water. Non-specific binding (NSB) was measured in the presence of 3.33 μM [4-(5-chloro-1,3-benzoxazol-2-yl)-7-methyl-1,4-diazepan-1-yl][5-methyl-2-(2H-1,2,3-triazol-2-yl)phenyl]methanone (Wertz et al, Angew. Chem. Int. Ed., 2011, 50, 11511-11515). Radioactivity on the filter was counted (1 min) on a Microbeta radiometric plate counter (Perkin Elmer) after addition of 50 μL of scintillation fluid (LabLogic: Part #SG-BXX-14). […] IC50 values were derived from the inhibition curve and the equilibrium dissociation constant (Ki) values were calculated using the Cheng-Prusoff equation.
For `CSc1cc(N2CCc3c(F)cccc3N(Cc3c(F)cc(Br)cc3F)C2=O)ccc1C` [Example 26, 1-(4-bromo-2,6-difluorobenzyl)-6-fluoro-3-[4-methyl-3-(methylsulfanyl)phenyl]-1,3,4,5-tetrahydro-2H-1,3-benzodiazepin-2-one], the Ki is 100 nM.

Turning to `Cc1ccc(N2CCc3c(F)cccc3N(Cc3c(F)cc(Br)cc3F)C2=O)cc1S(C)(=O)=O` [Example 27, 1-(4-bromo-2,6-difluorobenzyl)-6-fluoro-3-[4-methyl-3-(methylsulfonyl)phenyl]-1,3,4,5-tetrahydro-2H-1,3-benzodiazepin-2-one], the Ki was greater than 316 nM.

Regarding `CCCc1cc(F)c(CN2C(=O)N(c3ccc(C)c(S(C)(=O)=O)c3)CCc3c(F)cccc32)c(F)c1` [Example 28, 1-(2,6-difluoro-4-propylbenzyl)-6-fluoro-3-[4-methyl-3-(methylsulfonyl)phenyl]-1,3,4,5-tetrahydro-2H-1,3-benzodiazepin-2-one], the Ki was greater than 316 nM.

As to `Cc1cc(C)c(S(C)(=O)=O)cc1N1CCc2ccccc2N(Cc2c(F)cc(Br)cc2F)C1=O` [Example 29, 1-(4-bromo-2,6-difluorobenzyl)-3-[2,4-dimethyl-5-(methylsulfonyl)phenyl]-1,3,4,5-tetrahydro-2H-1,3-benzodiazepin-2-one], the Ki was 100 nM.

For the compound `Cc1cc(C)c(S(C)(=O)=O)cc1N1CCc2c(F)cccc2N(Cc2c(F)cc(Br)cc2F)C1=O` [Example 31, 1-(4-bromo-2,6-difluorobenzyl)-3-[2,4-dimethyl-5-(methylsulfonyl)phenyl]-6-fluoro-1,3,4,5-tetrahydro-2H-1,3-benzodiazepin-2-one], the Ki was 200 nM.

Regarding `Cc1ncc(N2CCc3c(F)cccc3N(Cc3c(F)cc(Br)cc3F)C2=O)cc1C(C)(F)F` [Example 32, 1-(4-bromo-2,6-difluorobenzyl)-3-[5-(1,1-difluoroethyl)-6-methylpyridin-3-yl]-6-fluoro-1,3,4,5-tetrahydro-2H-1,3-benzodiazepin-2-one], the Ki is 50.1 nM.

With `COCc1cc(F)c(CN2C(=O)N(c3cnc(C)c(C(C)(F)F)c3)CCc3c(F)cccc32)c(F)c1` [Example 33, 3-[5-(1,1-difluoroethyl)-6-methylpyridin-3-yl]-1-[2,6-difluoro-4-(methoxymethyl)benzyl]-6-fluoro-1,3,4,5-tetrahydro-2H-1,3-benzodiazepin-2-one], the Ki is greater than 251 nM.

With `CCCc1cc(F)c(CN2C(=O)N(c3cnc(C)c(C(C)(F)F)c3)CCc3c(F)cccc32)c(F)c1` [Example 34, 3-[5-(1,1-difluoroethyl)-6-methylpyridin-3-yl]-1-(2,6-difluoro-4-propylbenzyl)-6-fluoro-1,3,4,5-tetrahydro-2H-1,3-benzodiazepin-2-one], the Ki was greater than 251 nM.
